Target: T1, catechol-O-methyltransferase (COMT) (Homo sapiens, UniProt P21964)
T1 construct: M51A variant) was expressed in HEK 293F cells
T1 sequence (P21964 52-271 limits assumed): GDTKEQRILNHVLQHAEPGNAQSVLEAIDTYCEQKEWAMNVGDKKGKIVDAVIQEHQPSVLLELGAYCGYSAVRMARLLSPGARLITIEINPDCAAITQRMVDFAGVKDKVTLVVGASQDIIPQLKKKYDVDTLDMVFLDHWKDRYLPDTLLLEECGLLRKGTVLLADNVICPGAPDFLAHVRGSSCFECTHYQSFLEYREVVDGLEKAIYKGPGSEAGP
Assay: COMT inhibition assay (HTRF, production of S-adenosyl homocysteine)
Format: biochemical
Details: recombinant human COMT, HTRF SAH production; MB-COMT or S-COMT not stated for Table 1
Description: The ability of compounds to inhibit the activity of catechol-O-methyltransferase (COMT) was determined by a homogenous time-resolved fluorescent (HTRF) assay (Lina et al, 2012; kit from CisBio, Codolet, France). This assay measures the production of S-adenosyl homocysteine (SAH) from the methyl donor S-adenosyl methionine. Recombinant human membrane bound COMT (MB-COMT; M51A variant) was expressed in HEK 293F cells using 293Fectin (Life Technologies, Gent, Belgium) and membranes prepared. The membranes were re-suspended in buffer (20 mM Tris/HCl pH 7; 10 mM glycerol; 2 mM MgCl2; 10 mM NaCl), aliquoted and stored at −80° C. Recombinant human soluble COMT(S-COMT), Va1158 variant and a hexa-His tag on the N-terminus, was purified using Ni-NTA chromatography, the His tag removed and stored in buffer as above.
For the human MB-COMT assay, membranes (62 ng/well) were incubated with SAM (20 μM final, CisBio) and dopamine (1.5 μM final; Sigma H8502, Diegem, Belgium) in the presence or absence of varying concentrations (typically 10 concentrations ranging from 10 μM to 0.1 nM) of compound for 40 min at 37° C. in 384-well microtitre plates (10 μl per well final volume). The reaction was terminated by the addition of acylation buffer and the amount of SAH produced determined according to manufacturer's instructions. Specific inhibition as that inhibited by a high concentration of tolcapone (10 μM; synthesised at UCB) and all experiments were validated using a control curve to tolcapone.
The human S-COMT assay was performed as above except that 0.15 ng enzyme/well was incubated with SAM (20 μM final) and dopamine (100 μM final) for 15 min at 37° C. and SAH production determined.
HTRF readings were performed using a Perkin Elmer Envision and results expressed as concentration of SAH produced using a standard curve. Results were analysed using non-linear regression to the 4-parameter logistic equation and pIC50 (−log 10 concentration of drug which inhibits enzyme activity/SAH production by 50%) determined.

Structure (SMILES) | Activity range (pIC50, COMT inhibition)
Cc1ccc(CNS(=O)(=O)c2ccc(O)c3ncccc23)cc1 [Example 44, 8-hydroxy-N-(4-methylbenzyl)quinoline-5-sulfonamide] | ++ (a pIC50 of from about great than 6 to 7)
CC(C)(C)OC(=O)N1CCN(S(=O)(=O)c2ccc(O)c3ncccc23)CC1 [Example 103, tert-butyl 4-[(8-hydroxy-5-quinolyl)sulfonyl]piperazine-1-carboxylate] | ++ (a pIC50 of from about great than 6 to 7)
Cc1cc(S(=O)(=O)N2CCCC2)c2cccnc2c1O [Example 111, 7-methyl-5-pyrrolidin-1-ylsulfonyl-quinolin-8-ol] | +++ (a pIC50 of above about 7)
CC1CNCCN1S(=O)(=O)c1ccc(O)c2ncccc12 (stereo not shown) [Example 106, 5-(2-methylpiperazin-1-yl)sulfonylquinolin-8-ol] | + (a pIC50 of from about 4.5 to 6)
Cc1ccc(C)c(N2CCN(S(=O)(=O)c3ccc(O)c4ncccc34)CC2)c1 [Example 93, 5-[4-(2,5-dimethylphenyl)piperazin-1-yl]sulfonylquinolin-8-ol] | ++ (a pIC50 of from about great than 6 to 7)
O=S(=O)(c1ccc(O)c2ncccc12)N1CCCC1c1ccccn1 (stereo not shown) [Example 80, 5-[2-(2-pyridyl)pyrrolidin-1-yl]sulfonylquinolin-8-ol] | ++ (a pIC50 of from about great than 6 to 7)
O=S(=O)(c1ccc(O)c2ncccc12)N1CC2CCC(CC2)C1 [Example 91, 5-(3-azabicyclo[3.2.2]nonan-3-ylsulfonyl)quinolin-8-ol] | +++ (a pIC50 of above about 7)
Cc1ccc(S(=O)(=O)c2cc(Br)c(O)c3ncccc23)cc1 [Example 108, 7-bromo-5-(p-tolylsulfonyl)quinolin-8-ol] | ++ (a pIC50 of from about great than 6 to 7)
O=S(=O)(c1ccc(O)c2ncccc12)N1CCCCC1 [Example 63, 5-(piperidin-1-yl)sulfonylquinolin-8-ol] | +++ (a pIC50 of above about 7)
CN(C)CCN(Cc1ccccc1)S(=O)(=O)c1ccc(O)c2ncccc12 [Example 57, N-benzyl-N-(2-dimethylaminoethyl)-8-hydroxy-quinoline-5-sulfonamide] | ++ (a pIC50 of from about great than 6 to 7)
O=S(=O)(c1ccccc1C(F)(F)F)c1ccc(O)c2ncccc12 [Example 21, 5-[2-(trifluoromethyl)phenyl]sulfonylquinolin-8-ol] | +++ (a pIC50 of above about 7)
Cc1ccc(S(=O)(=O)c2cc(Cl)c(O)c3ncccc23)cc1 [Example 109, 7-chloro-5-(p-tolylsulfonyl)quinolin-8-ol] | +++ (a pIC50 of above about 7)
COCCCN1CCN(S(=O)(=O)c2ccc(O)c3ncccc23)CC1 [Example 89, 5-[4-(3-methoxypropyl)piperazin-1-yl]sulfonylquinolin-8-ol] | ++ (a pIC50 of from about great than 6 to 7)
O=S(=O)(c1ccc(O)c2ncccc12)N1CCCC(c2ccccc2)C1 (stereo not shown) [Example 102, 5-[(3-phenyl-1-piperidyl)sulfonyl]quinolin-8-ol] | +++ (a pIC50 of above about 7)
O=S(=O)(c1ccc(O)c2ncccc12)C1CCCCC1 [Example 30, 5-cyclohexylsulfonylquinolin-8-ol] | +++ (a pIC50 of above about 7)
CC(C)CC1CCCN1S(=O)(=O)c1ccc(O)c2ncccc12 (stereo not shown) [Example 82, 5-(2-isobutylpyrrolidin-1-yl)sulfonylquinolin-8-ol] | +++ (a pIC50 of above about 7)

Structure (SMILES) | Activity range (pIC50, COMT inhibition)
CC(=O)C1(c2ccccc2)CCN(S(=O)(=O)c2ccc(O)c3ncccc23)CC1 [Example 86, 1-[1-[(8-hydroxy-5-quinolyl)sulfonyl]-4-phenyl-4-piperidyl]ethanone] | +++ (a pIC50 of above about 7)
O=S(=O)(c1ccc(O)c2ncccc12)N1CCCC1c1ccncc1 (stereo not shown) [Example 79, 5-[2-(4-pyridyl)pyrrolidin-1-yl]sulfonylquinolin-8-ol] | ++ (a pIC50 of from about great than 6 to 7)
Cc1cnccc1S(=O)(=O)c1ccc(O)c2ncccc12 [Example 27, 5-[(3-methyl-4-pyridyl)sulfonyl]quinolin-8-ol] | +++ (a pIC50 of above about 7)
N#Cc1ccccc1N1CCN(S(=O)(=O)c2ccc(O)c3ncccc23)CC1 [Example 90, 2-[4-[(8-hydroxy-5-quinolyl)sulfonyl]piperazin-1-yl]benzonitrile] | +++ (a pIC50 of above about 7)
O=S(=O)(c1cccc(-c2ccc(F)c(Cl)c2)c1)c1ccc(O)c2ncccc12 [Example 24, 5-[3-(3-chloro-4-fluoro-phenyl)phenyl]sulfonylquinolin-8-ol] | +++ (a pIC50 of above about 7)
O=S(=O)(c1ccc(O)c2ncccc12)N1CCc2ccccc2C1 [Example 40, 5-(3,4-dihydro-1H-isoquinolin-2-ylsulfonyl)quinolin-8-ol] | +++ (a pIC50 of above about 7)
O=S(=O)(c1cccc(C(F)(F)F)c1)c1ccc(O)c2ncccc12 [Example 13, 5-[3-(trifluoromethyl)phenyl]sulfonylquinolin-8-ol] | +++ (a pIC50 of above about 7)
O=S(=O)(c1ccc(O)c2ncccc12)N1CCCC1C1CCCCC1 (stereo not shown) [Example 76, 5-(2-cyclohexylpyrrolidin-1-yl)sulfonylquinolin-8-ol] | +++ (a pIC50 of above about 7)
O=S(=O)(c1ccc(C(F)(F)F)cc1)c1ccc(O)c2ncccc12 [Example 11, 5-[4-(trifluoromethyl)phenyl]sulfonylquinolin-8-ol] | +++ (a pIC50 of above about 7)
Cc1ccc(CCS(=O)(=O)c2ccc(O)c3ncccc23)cc1 [Example 29, 5-[2-(p-tolyl)ethylsulfonyl]quinolin-8-ol] | +++ (a pIC50 of above about 7)
O=S(=O)(c1ccc(O)c2ncccc12)N1Cc2ccccc2C1 [Example 47, 5-isoindolin-2-ylsulfonylquinolin-8-ol] | +++ (a pIC50 of above about 7)
O=S(=O)(c1cccc(-c2cccc3[nH]ncc23)c1)c1ccc(O)c2ncccc12 [Example 26, 5-[3-(1H-indazol-4-yl)phenyl]sulfonylquinolin-8-ol] | +++ (a pIC50 of above about 7)
O=S(=O)(c1ccc(O)c2ncccc12)C1CCN(Cc2cccc(Cl)c2Cl)CC1 [Example 38, 5-[[1-[(2,3-dichlorophenyl)methyl]-4-piperidyl]sulfonyl]quinolin-8-ol] | ++ (a pIC50 of from about great than 6 to 7)
O=S(=O)(c1ccc(O)c2ncccc12)N1CCN(c2cccc(Cl)c2Cl)CC1 [Example 97, 5-[4-(2,3-dichlorophenyl)piperazin-1-yl]sulfonylquinolin-8-ol] | ++ (a pIC50 of from about great than 6 to 7)
O=S(=O)(c1ccc(O)c2ncccc12)N1CCC(c2ccccc2)CC1 [Example 73, 5-[(4-phenyl-1-piperidyl)sulfonyl]quinolin-8-ol] | +++ (a pIC50 of above about 7)
